Assays:
human full-length MKNK1 [1] = molecular target: T1, human full-length MKNK1 (Homo sapiens (Human), UniProt Q9BUB5, T344D); experiment: MKNK1 kinase assay (TR-FRET, 10 μM ATP); format: biochemical; conditions: 15 min preincubation, GST-MKNK1 (T344D)
Protocol: MKNK1-inhibitory activity of compounds of the present invention was quantified employing the MKNK1 TR-FRET assay as described in the following paragraphs. […] As substrate for the kinase reaction the biotinylated peptide biotin-Ahx-[…]
For the assay 50 nL of a 100 fold concentrated solution of the test compound in DMSO was pipetted into a black low volume 384 well microtiter plate (Greiner Bio-One, Frickenhausen, Germany), 2 μL of a solution of MKNK1 in aqueous assay buffer [50 mM HEPES pH 7.5, 5 mM magnesium chloride, 1.0 mM dithiothreitol, 0.005% (v/v) Nonidet-P40 (Sigma)] was added and the mixture was incubated for 15 min at 22° C. to allow pre-binding of the test compounds to the enzyme before the start of the kinase reaction. […] The concentration of MKNK1 was adjusted depending of the activity of the enzyme lot and was chosen appropriate to have the assay in the linear range, typical concentrations were in the range of 0.05 μg/mi. The reaction was stopped by the addition of 5 μL of a solution of TR-FRET detection reagents (5 nM streptavidine-XL665 [Cisbio Bioassays, Codolet, France] and 1 nM anti-ribosomal protein […] (pSer236)-antibody from Invitrogen [#44921G] and 1 nM LANCE EU-W1024 labeled ProteinG [Perkin-Elmer, product no. AD0071]) in an aqueous EDTA-solution (100 mM EDTA, 0.1% (w/v) bovine serum albumin in 50 mM HEPES pH 7.5).
(§1) The resulting mixture was incubated for 1 h at 22° C. to allow the formation of complex between the phosphorylated biotinylated peptide and the detection reagents. Subsequently the amount of phosphorylated substrate was evaluated by measurement of the resonance energy transfer from the Eu-chelate to the streptavidine-XL.

human full-length MKNK1 [2] = molecular target: T1, human full-length MKNK1; experiment: MKNK1 kinase high ATP assay (TR-FRET, 2 mM ATP); format: biochemical; conditions: 15 min preincubation, GST-MKNK1 (T344D)
Protocol: MKNK1-inhibitory activity at high ATP of compounds of the present invention after their preincubation with MKNK1 was quantified employing the TR-FRET-based MKNK1 high ATP assay as described in the following paragraphs.
As substrate for the kinase reaction the biotinylated peptide biotin-Ahx-[…]
For the assay 50 nL of a 100 fold concentrated solution of the test compound in DMSO was pipetted into a black low volume 384 well microtiter plate (Greiner Bio-One, Frickenhausen, Germany), 2 μL of a solution of MKNK1 in aqueous assay buffer [50 mM HEPES pH 7.5, 5 mM magnesium chloride, 1.0 mM dithiothreitol, 0.005% (v/v) Nonidet-P40 (Sigma)] was added and the mixture was incubated for 15 min at 22° C. to allow pre-binding of the test compounds to the enzyme before the start of the kinase reaction. Then the kinase reaction was started by the addition of 3 μL of a solution of adenosine-tri-phosphate (ATP, 3.3 mM=>final conc. in the 5 μL assay volume is 2 mM) and substrate (0.1 μM=>final conc. in the 5 μL assay volume is 0.06 μM) in assay buffer and the resulting mixture was incubated for a reaction time of 30 min at 22° C. The concentration of MKNK1 was adjusted depending of the activity of the enzyme lot and was chosen appropriate to have the assay in the linear range, typical concentrations were in the range of 0.003 μg/mL. The reaction was stopped by the addition of 5 μL of a solution of TR-FRET detection reagents (5 nM streptavidine-XL665 [Cisbio Bioassays, Codolet, France] and 1 nM anti-ribosomal protein S6 (pSer236)-antibody from Invitrogen [#44921G] and 1 nM LANCE EU-W1024 labeled ProteinG [Perkin-Elmer, product no. AD0071]) in an aqueous EDTA-solution (100 mM EDTA, 0.1% (w/v) bovine serum albumin in 50 mM HEPES pH 7.5).
as §1

T1 sequence (Q9BUB5 other isoform, or with tags, fused parts or gaps T344D): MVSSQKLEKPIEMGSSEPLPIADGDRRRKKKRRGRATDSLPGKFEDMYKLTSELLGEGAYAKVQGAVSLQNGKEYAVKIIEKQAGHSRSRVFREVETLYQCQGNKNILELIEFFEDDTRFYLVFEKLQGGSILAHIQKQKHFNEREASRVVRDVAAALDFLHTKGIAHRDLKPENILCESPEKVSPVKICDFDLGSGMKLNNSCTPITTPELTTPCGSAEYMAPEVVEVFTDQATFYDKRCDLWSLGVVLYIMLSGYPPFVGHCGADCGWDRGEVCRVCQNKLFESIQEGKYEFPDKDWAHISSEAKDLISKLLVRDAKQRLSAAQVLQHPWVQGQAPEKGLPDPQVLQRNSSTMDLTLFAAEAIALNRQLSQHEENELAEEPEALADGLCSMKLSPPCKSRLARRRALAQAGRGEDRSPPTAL

| Compound | IC50 (human full-length MKNK1 [1]) [nM] | IC50 (human full-length MKNK1 [2]) [nM] |
| --- | --- | --- |
| CN(C)CCN(C)C(=O)c1ccc2ncc(-c3cc4c(N5CCOCC5)nccc4o3)n2n1 [Example 3, N-[2-(dimethylamino)ethyl]-N-methyl-3-[4-(morpholin-4-yl)furo[3,2-c]pyridin-2-yl]imidazo[1,2-b]pyridazine-6-carboxamide] | 88 | 140 |
| CN1CCN(C(=O)c2ccc3ncc(-c4cc5c(N6CCOCC6)nccc5o4)n3n2)CC1 [Example 4, (4-Methylpiperazin-1-yl){3-[4-(morpholin-4-yl)furo[3,2-c]pyridin-2-yl]imidazo-[1,2-b]pyridazin-6-yl}methanone] | 110 | 280 |
| CN(C)CCCNC(=O)c1ccc2ncc(-c3cc4ccccc4o3)n2n1 [Example 10, 3-(1-Benzofuran-2-yl)-N-[3-(dimethylamino)propyl]imidazo[1,2-b]pyridazine-6-carboxamide] | 3.3 | 7.9 |
| C[C@H](CO)NC(=O)c1ccc2ncc(-c3cc4ccccc4o3)n2n1 [Example 11, 3-(1-Benzofuran-2-yl)-N-[(2R)-1-hydroxypropan-2-yl]imidazo[1,2-b]pyridazine-6-carboxamide] | 4.1 | 8.8 |
| COCCCNC(=O)c1ccc2ncc(-c3cc4ccccc4o3)n2n1 [Example 12, 3-(1-Benzofuran-2-yl)-N-(3-methoxypropyl)imidazo[1,2-b]pyridazine-6-carboxamide] | 4.9 | 9.5 |
| CC(C)[C@H](CO)NC(=O)c1ccc2ncc(-c3cc4ccccc4o3)n2n1 [Example 13, 3-(1-Benzofuran-2-yl)-N-[(2R)-1-hydroxy-3-methylbutan-2-yl]imidazo[1,2-b]-pyridazine-6-carboxamide] | 6.8 | 12 |
| O=C(NCc1ccccc1)c1ccc2ncc(-c3cc4ccccc4o3)n2n1 [Example 14, 3-(1-Benzofuran-2-yl)-N-benzylimidazo[1,2-b]pyridazine-6-carboxamide] | 5.2 | 12 |
| COCCNC(=O)c1ccc2ncc(-c3cc4ccccc4o3)n2n1 [Example 15, 3-(1-Benzofuran-2-yl)-N-(2-methoxyethyl)imidazo[1,2-b]pyridazine-6-carboxamide] | 8 | 15 |
| CN(Cc1ccccc1)C(=O)c1ccc2ncc(-c3cc4ccccc4o3)n2n1 [Example 16, 3-(1-Benzofuran-2-yl)-N-benzyl-N-methylimidazo[1,2-b]pyridazine-6-carboxamide] | 8.8 | 23 |
| CN(C)CCNC(=O)c1ccc2ncc(-c3cc4ccccc4o3)n2n1 [Example 17, 3-(1-Benzofuran-2-yl)-N-[2-(dimethylamino)ethyl]imidazo[1,2-b]pyridazine-6-carboxamide] | 1.7 | 34 |
| CC(C)[C@@H](CO)NC(=O)c1ccc2ncc(-c3cc4ccccc4o3)n2n1 [Example 18, 3-(1-Benzofuran-2-yl)-N-[(2S)-1-hydroxy-3-methylbutan-2-yl]imidazo[1,2-b]-pyridazine-6-carboxamide] | 1.3 | 42 |

From patent US10214545B2, “Amido-substituted imidazopyridazines useful in the treatment of hyper-proliferative and/or angiogenesis disorders” (BAYER PHARMA AKTIENGESELLSCHAFT, priority 2014, dated 2019)
